Consider twelve compounds from patent publication US20260217767A1, “NOVEL A4B7 THIOETHER PEPTIDE DIMER ANTAGONISTS” (Protagonist Therapeutics, Inc., priority 2014, published 2026).

pIC50: −log10 of the molar value. Where two headings read alike, the source gives them in different places. *1 amine or outer side, *2 acyl side, *3 side chain or, on linkers, in order; H or OH if unused. Where a SMILES comes first, the peptide text is derived from it. Bridges are numbered along the chain shown (N, C = ends). [ ]: non-standard residue; d: D form. Phe(4-tBu) = CC(C)(C)c1ccc(C[C@H](N)C(=O)O)cc1; NMeR = CN[C@@H](CCCNC(=N)N)C(=O)O; β3hE = N[C@@H](CCC(=O)O)CC(=O)O; X1 = O=C(c1ccccc1C[*:2])[*:1]; Pen = CC(C)(S)[C@H](N)C(=O)O

The target in the test is T1, RPMI 8866 cells (Homo sapiens, UniProt P13612+P26010).
T1 sequence (P13612 34-1032): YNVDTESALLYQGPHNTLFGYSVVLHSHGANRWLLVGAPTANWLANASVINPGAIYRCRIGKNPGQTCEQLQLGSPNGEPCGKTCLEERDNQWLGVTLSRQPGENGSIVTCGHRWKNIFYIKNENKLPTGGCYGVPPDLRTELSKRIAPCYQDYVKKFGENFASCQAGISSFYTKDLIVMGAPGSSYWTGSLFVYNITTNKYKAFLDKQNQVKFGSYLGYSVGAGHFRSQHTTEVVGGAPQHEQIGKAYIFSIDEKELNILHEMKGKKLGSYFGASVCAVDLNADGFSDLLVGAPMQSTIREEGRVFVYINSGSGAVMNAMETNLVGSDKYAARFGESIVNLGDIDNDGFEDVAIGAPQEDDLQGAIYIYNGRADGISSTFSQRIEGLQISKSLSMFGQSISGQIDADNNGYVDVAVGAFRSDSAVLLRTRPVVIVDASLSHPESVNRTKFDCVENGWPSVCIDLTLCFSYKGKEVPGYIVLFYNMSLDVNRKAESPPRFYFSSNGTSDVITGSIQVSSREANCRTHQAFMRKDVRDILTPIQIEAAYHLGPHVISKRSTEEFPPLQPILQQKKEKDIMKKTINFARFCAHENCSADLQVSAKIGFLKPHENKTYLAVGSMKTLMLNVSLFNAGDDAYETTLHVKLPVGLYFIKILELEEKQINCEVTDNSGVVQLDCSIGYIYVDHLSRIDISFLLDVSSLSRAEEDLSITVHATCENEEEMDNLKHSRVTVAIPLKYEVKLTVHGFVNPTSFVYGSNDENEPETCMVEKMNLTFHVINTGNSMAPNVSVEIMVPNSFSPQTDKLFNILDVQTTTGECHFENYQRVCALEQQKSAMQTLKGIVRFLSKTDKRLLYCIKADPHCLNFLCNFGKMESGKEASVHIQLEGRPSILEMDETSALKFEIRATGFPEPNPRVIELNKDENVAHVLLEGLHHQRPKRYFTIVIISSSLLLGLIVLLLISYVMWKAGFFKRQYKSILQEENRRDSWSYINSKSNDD
T1 sequence (P26010 20-798): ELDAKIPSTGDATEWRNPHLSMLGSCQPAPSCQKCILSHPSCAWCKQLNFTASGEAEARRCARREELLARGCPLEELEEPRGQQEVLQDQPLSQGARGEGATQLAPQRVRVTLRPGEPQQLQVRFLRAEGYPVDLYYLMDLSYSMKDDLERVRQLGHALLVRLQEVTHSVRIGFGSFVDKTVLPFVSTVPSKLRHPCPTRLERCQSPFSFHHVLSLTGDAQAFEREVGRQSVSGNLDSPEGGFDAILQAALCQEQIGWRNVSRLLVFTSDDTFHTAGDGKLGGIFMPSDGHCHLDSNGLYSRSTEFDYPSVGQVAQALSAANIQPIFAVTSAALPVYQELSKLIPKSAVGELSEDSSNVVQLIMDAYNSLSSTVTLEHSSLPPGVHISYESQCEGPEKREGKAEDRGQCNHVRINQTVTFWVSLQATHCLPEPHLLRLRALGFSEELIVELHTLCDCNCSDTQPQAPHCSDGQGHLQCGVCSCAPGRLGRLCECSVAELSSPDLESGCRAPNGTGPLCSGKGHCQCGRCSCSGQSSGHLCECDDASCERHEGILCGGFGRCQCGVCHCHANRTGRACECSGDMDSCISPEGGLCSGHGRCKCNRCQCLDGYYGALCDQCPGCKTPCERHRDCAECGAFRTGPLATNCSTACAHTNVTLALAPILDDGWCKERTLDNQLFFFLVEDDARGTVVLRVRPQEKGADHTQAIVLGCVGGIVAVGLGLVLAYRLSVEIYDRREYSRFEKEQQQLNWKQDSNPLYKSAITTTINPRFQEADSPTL
Put plainly: α4β7-MAdCAM Cell Adhesion Assay. The class given is cell-based. Conditions: read-out: Cell-Adhesion A4B7. The method, then:
α4β7-MAdCAM Cell Adhesion Assay
RPMI 8866 cells (Sigma #95041316) were cultured in RPMI 1640 HEPES medium (Invitrogen #22400-089) supplemented with 10% serum (Fetal Bovine Serum, Invitrogen #16140-071), 1 mM sodium pyruvate (Invitrogen #11360-070), 2 mM L-glutamine (Invitrogen #25030-081) and Penicillin-Streptomycin (Invitrogen #15140-122) at 100 units of penicillin and 100 μg of streptomycin per ml. The cells were washed two times in DMEM medium (ATCC #30-2002) supplemented with 0.1% BSA, 10 mM HEPES pH 7 and 1 mM MnCl2. The cells were re-suspended in supplemented DMEM medium at a density of 4×10^6 cells/ml.
A Nunc MaxiSorp plate was coated with rh MAdCAM-1/Fc Chimera (R&D #6065-MC) at 200 ng per well in 50 ul per well in 1×PBS and incubated at 4° C. overnight. The solution was then removed by shaking, blocked with 250 ul per well PBS containing 1% BSA, and incubated at 37° C. for 1 hr. The solution was removed by shaking. Peptides were diluted by serial dilution in a final volume of 50 ul per well (2× concentration). To each well, 50 ul of cells (200,000 cells) were added and the plate was incubated at 37° C., 5% CO2 for 30-45 min to allow cell adhesion. The wells were washed manually three times (100 ul per wash) with supplemented DMEM. After the final wash, 100 μl/well of supplemented DMEM and 10 ul/well of MTT reagent (ATTC cat #30-1010K) were added. The plate was incubated at 37° C., 5% CO2 for 2-3 hrs until a purple precipitate is visible. 100 ul of Detergent Reagent (ATTC cat #30-1010K) was added to each well. The plate was covered from the light, wrapped in Parafilm to prevent evaporation, and left overnight at room temperature in the dark. The plate was shaken for 5 min and the absorbance at 570 nm is measured. To calculate the dose response, the absorbance value of control wells not containing cells was subtracted from each test well.

[1] abbreviates: thioether peptide dimers, Table 7.
Setting [2] is: thioether monomer peptides, Table 6.

Take “180 (RSDTLCXEK; not fully specified; CROSSLINK - N-term 2-Benzyl with a thioether bond between the N-term and the residue at position 6; MOD_RES 1 N-Methyl Arginine; SITE 7 aminoindan-2-carboxylic acid; SITE 8 D-Glu; SITE 9 D-Lys; SITE 9 C-term NH2) [compound 180]”: the pIC50 under setting [1] was 6.00 to 7.00.
On the same count and under the same terms, the result for “181 (RSDTLXWEK; not fully specified; CROSSLINK - N-term 2-Benzyl with a thioether bond between the N-term and the residue at position 6; MOD_RES 1 N-Methyl Arginine; SITE 6 D-Penicillamine; SITE 9 D-Lys; SITE 9 C-term NH2) [compound 181]” reads less than 6.00.
Same read-out and setting: next, “221 (RSDTLCXK; not fully specified; CROSSLINK - N-term 2-Benzyl with a thioether bond between the N-term and the residue at position 6; MOD_RES 1 N-Methyl Arginine; SITE 7 (3S-)-1,2,3,4-tetrahydroisoquinoline-3-carboxylic acid; SITE 8 D-Lys; SITE 8 C-term OH) [compound 221]”: 7.00 to 7.60.
On the same count and under the same terms, the result for `CC(C)C[C@@H]1NC(=O)[C@H]([C@@H](C)O)NC(=O)[C@H](CC(=O)O)NC(=O)[C@H](CO)NC(=O)[C@H](CCCNC(=N)N)N(C)C(=O)C(C)SC(C)(C)[C@@H](C(=O)N[C@@H](Cc2c[nH]c3ccccc23)C(=O)N[C@H](CCCCN)C(N)=O)NC1=O` (single isomer, unassigned) [compound 148] reads less than 6.00.
With `CC(C)C[C@@H]1NC(=O)[C@H]([C@@H](C)O)NC(=O)[C@H](CC(=O)O)NC(=O)[C@H](CO)NC(=O)[C@H](CCCNC(=N)N)N(C)C(=O)c2cccc(c2)CSC(C)(C)[C@@H](C(=O)N[C@@H](Cc2c[nH]c3ccccc23)C(=O)N[C@H](CCC(=O)O)C(=O)N[C@H](CCCCN)C(N)=O)NC1=O` [compound 111] (HELM PEPTIDE1{[meR].S.D.T.L.[Pen].W.[dE].[dK].[am]}|CHEM1{[O=C(c1cccc(C[*:2])c1)[*:1]]}$PEPTIDE1,CHEM1,1:R1-1:R1|PEPTIDE1,CHEM1,6:R3-1:R2$$$V2.0), under setting [2], the pIC50 is less than 6.00.
On to `CC(C)C[C@@H]1NC(=O)[C@H]([C@@H](C)O)NC(=O)[C@H](CC(=O)O)NC(=O)[C@H](CO)NC(=O)[C@H](CCCNC(=N)N)N(C)C(=O)c2ccc(cc2)CSC(C)(C)[C@@H](C(=O)N[C@@H](Cc2c[nH]c3ccccc23)C(=O)N[C@H](CCC(=O)O)C(=O)N[C@H](CCCCN)C(N)=O)NC1=O` [compound 112] (HELM PEPTIDE1{[meR].S.D.T.L.[Pen].W.[dE].[dK].[am]}|CHEM1{[O=C(c1ccc(C[*:2])cc1)[*:1]]}$PEPTIDE1,CHEM1,1:R1-1:R1|PEPTIDE1,CHEM1,6:R3-1:R2$$$V2.0), for which the pIC50 under setting [2] is less than 6.00.
On to `CC(C)C[C@@H]1NC(=O)[C@H]([C@@H](C)O)NC(=O)[C@H](CC(=O)O)NC(=O)[C@H](CO)NC(=O)[C@H](CCCNC(=N)N)N(C)C(=O)c2ccccc2CSC[C@@H](C(=O)N2Cc3ccccc3C[C@H]2C(=O)N[C@H](CCCCN)C(=O)O)NC1=O` [compound 118] (HELM PEPTIDE1{[meR].S.D.T.L.C.[Tic].[dK]}|CHEM1{[O=C(c1ccccc1C[*:2])[*:1]]}$PEPTIDE1,CHEM1,1:R1-1:R1|PEPTIDE1,CHEM1,6:R3-1:R2$$$V2.0), for which the pIC50 under setting [2] was 6.00 to 7.00.
Turning to `CC(C)C[C@@H]1NC(=O)[C@H]([C@@H](C)O)NC(=O)[C@H](CC(=O)O)NC(=O)[C@H](C)NC(=O)[C@H](CCCNC(=N)N)N(C)C(=O)c2ccccc2CSC(C)(C)[C@@H](C(=O)N[C@@H](Cc2ccc(C(C)(C)C)cc2)C(=O)N[C@@H](CCC(=O)O)CC(N)=O)NC1=O` [compound 139] ([NMeR]ADTL[Pen][Phe(4-tBu)][β3hE]-NH2; linker N-6 via X1), the pIC50 under setting [2] was 7.00 to 7.60.
`CC(C)C[C@@H]1NC(=O)[C@H]([C@@H](C)O)NC(=O)[C@H](CC(=O)O)NC(=O)[C@H](CO)NC(=O)[C@H](CCCNC(=N)N)N(C)C(=O)c2ccccc2CSC[C@@H](C(=O)N[C@@H](Cc2c[nH]c3ccccc23)C(=O)N[C@@H](CCC(=O)O)C(=O)N[C@H](CCCCN)C(N)=O)NC1=O` [compound 145] (HELM PEPTIDE1{[meR].S.D.T.L.C.W.E.[dK].[am]}|CHEM1{[O=C(c1ccccc1C[*:2])[*:1]]}$PEPTIDE1,CHEM1,1:R1-1:R1|PEPTIDE1,CHEM1,6:R3-1:R2$$$V2.0): the pIC50 under setting [1] is 7.00 to 7.60.
The same measure, in the same setting: the result for `CC(C)C[C@@H]1NC(=O)[C@H]([C@@H](C)O)NC(=O)[C@H](CC(=O)O)NC(=O)[C@H](CO)NC(=O)[C@H](CCCNC(=N)N)N(C)C(=O)CSC(C)(C)[C@@H](C(=O)N[C@@H](Cc2c[nH]c3ccccc23)C(=O)N[C@H](CCCCN)C(N)=O)NC1=O` [compound 147] reads less than 6.00; that for `CC(C)C[C@@H]1NC(=O)[C@H]([C@@H](C)O)NC(=O)[C@H](CC(=O)O)NC(=O)[C@H](CO)NC(=O)[C@H](CCCNC(=N)N)N(C)C(=O)c2ccccc2CSC[C@@H](C(=O)N[C@H](Cc2ccccc2)C(=O)N[C@@H](CCC(=O)O)C(=O)N[C@H](CCCCN)C(N)=O)NC1=O` [compound 186] (HELM PEPTIDE1{[meR].S.D.T.L.C.[dF].E.[dK].[am]}|CHEM1{[O=C(c1ccccc1C[*:2])[*:1]]}$PEPTIDE1,CHEM1,1:R1-1:R1|PEPTIDE1,CHEM1,6:R3-1:R2$$$V2.0), 7.00 to 7.60.
Regarding `CC(C)C[C@@H]1NC(=O)[C@H]([C@@H](C)O)NC(=O)[C@H](CC(=O)O)NC(=O)[C@H](CO)NC(=O)[C@H](CCCNC(=N)N)N(C)C(=O)c2ccccc2CSC[C@@H](C(=O)N[C@H](Cc2ccccc2)C(=O)N[C@H](CCC(=O)O)C(=O)N[C@H](CCCCN)C(N)=O)NC1=O` [compound 187] (HELM PEPTIDE1{[meR].S.D.T.L.C.[dF].[dE].[dK].[am]}|CHEM1{[O=C(c1ccccc1C[*:2])[*:1]]}$PEPTIDE1,CHEM1,1:R1-1:R1|PEPTIDE1,CHEM1,6:R3-1:R2$$$V2.0), under setting [1], the pIC50 is 7.00 to 7.60.
